From patent US9896466B2 (Smart Brain S.R.O., priority 2013, dated 2018)

Experiments:
[1] = test system: mitochondrial complex I; experiment: Respiration via mitochondrial complexes I and II, Oxygraf; format: cell-based, human; conditions: MCF7 cells, respiration at increasing doses
Description: Respiration (oxygen consumption linked with ATP formation) is related to 10^6 cells and is shown as a relative value with the beginning level of respiration marked with the relative value of 1.

[2] = test system: MCF7 sublines differing in HER2 levels; experiment: Formation of reactive oxygen species (ROS); format: cell-based, human; conditions: 5 μM, 1 h exposure
Description: A property typically associated a number of mitocans is their ability to increase oxidative stress (formation of reactive oxygen species, ROS), selectively in cancer cells, especially associated with their action on mitochondrial complexes participating with oxidative phosphorylation. […] We tested formation of ROS also for MitoTAX.

[3] = test system: oestrogen receptor ERα; experiment: ERα expression by real-time PCR; format: cell-based; conditions: 1 μM
[4] = test system: MCF7HER2−; conditions: FIG. 4, survival, crystal violet
Description: MitoTAX prepared according to Example 6 was tested for its effect on breast cancer cell lines. Lines with different levels of HER2 protein expression and oestrogen receptor α. (ERα) were used. The cell line MCF7 features a relatively low expression of the HER2 protein. For the testing of killing of breast cancer cells with different HER2 protein levels by MitoTAX, we prepared HER2^− and HER^+ MCF7 cells. MCF7 cells were transfected with the vector with a ‘non-silencing’ sequence (NS), with a ‘short hairpin’ sequence attenuating the expression of HER2 (sh) and with the vector with a gene for HER2. […] In the subsequent work, the sublines NS, Sh1 26 (clone 26) and +11 (clone 11) were used.
The individual values were determined from the survival curves of cells at various concentrations of both substances using the crystal violet method.

[5] = test system: mitochondrial potential; experiment: Decrease in mitochondrial potential; format: cell-based; conditions: 5 μM, within 1 h

SMILES: CC/C(=C(\c1ccccc1)c1ccc(OCCN(C)C)cc1)c1ccccc1 [TAX, tamoxifen]
- concentration at which complex I is inhibited preferably to complex II [1]: exceeding 20 μM
- generation of ROS [2]: markedly less effective
- reduction of ERα expression [3]: ineffective
- response of line with reduced HER2 expression (clone 26) [4]: exactly opposite

SMILES: N#CC(C#N)=NNc1cccc(Cl)c1 [CCCP]
- reduction of mitochondrial potential [5]: reduces the mitochondrial potential to its basal value
